Assay results published in ChEMBL document CHEMBL4002625, “Synthesis and structure-activity relationship studies of phenolic hydroxyl derivatives based on quinoxalinone as aldose reductase inhibitors with antioxidant activity” (Bioorg Med Chem Lett, 2017).

Assays:
[1] = Antioxidant activity assessed as DPPH radical scavenging activity at 100 uM after 240 mins by UV spectrophotometer relative to control; assay type: functional
[2] = Antioxidant activity assessed as DPPH radical scavenging activity at 50 uM after 240 mins by UV spectrophotometer relative to control; assay type: functional
[3] = target: Aldo-keto reductase family 1 member B1 (Rattus norvegicus, UniProt P07943); test: Inhibition of rat lens ALR2 using D,L-glyceraldehyde as substrate assessed as decrease in NADPH oxidation preincubated for 10 mins followed by substrate addition measured for 4 mins by spectrophotometer
[4] = Antioxidant activity assessed as DPPH radical scavenging activity at 10 uM after 240 mins by UV spectrophotometer relative to control; assay type: functional

IC50 [3] [nM] | SMILES | Activity [1] [%] | Activity [2] [%] | Activity [4] [%]
98 | COc1ccc2c(c1)nc(/C=C/c1ccc(O)cc1)c(=O)n2CC(=O)O | 51.8 | 27.6 | 
 | Cc1c(C)c2c(c(C)c1O)CCC(C)(C(=O)O)O2 (stereo not given) | 96.5 | 92.7 | 89.3
6820 | COc1ccc2c(c1)nc(-c1ccccc1)c(=O)n2CC(=O)O |  |  | 
273 | COc1ccc2c(c1)nc(-c1c(O)cc(O)cc1O)c(=O)n2CC(=O)O | 68.7 | 53.7 | 36.4
102 | O=C(O)Cn1c(=O)c(/C=C/c2ccc(O)c(O)c2)nc2ccc(O)cc21 | 96.2 | 82.1 | 70.5
210 | COc1ccc2nc(/C=C/c3ccc(O)c(OC)c3)c(=O)n(CC(=O)O)c2c1 | 83.5 | 65.9 | 42.2
185 | COc1ccc2c(c1)nc(/C=C/c1ccc(O)c(OC)c1)c(=O)n2CC(=O)O | 74.9 | 61.4 | 39.7
4290 | O=C(O)Cn1c(=O)c(-c2ccccc2)nc2cc(O)ccc21 | 15.8 |  | 
159 | O=C(O)Cn1c(=O)c(/C=C/c2ccc(O)c(O)c2)nc2cc(O)ccc21 | 90.4 | 77.8 | 64.2
116 | COc1ccc2nc(-c3c(O)cc(O)cc3O)c(=O)n(CC(=O)O)c2c1 | 80.6 | 69.3 | 40.6
508 | COc1ccc2nc(CCc3ccc(O)cc3)c(=O)n(CC(=O)O)c2c1 | 20.7 |  | 
2080 | COc1ccc2nc(-c3ccc(O)cc3)c(=O)n(CC(=O)O)c2c1 | 12.3 |  | 
59 | COc1ccc2nc(/C=C/c3ccc(O)cc3)c(=O)n(CC(=O)O)c2c1 | 59.2 | 34.3 | 
924 | COc1ccc2nc(/C=C/c3ccccc3)c(=O)n(CC(=O)O)c2c1 |  |  | 
179 | COc1ccc2nc(-c3ccc(O)cc3O)c(=O)n(CC(=O)O)c2c1 | 37.2 |  | 
5310 | COc1ccc2nc(-c3ccccc3)c(=O)n(CC(=O)O)c2c1 |  |  | 
1300 | COc1ccc2nc(CCc3ccccc3)c(=O)n(CC(=O)O)c2c1 |  |  | 
865 | COc1ccc2nc(-c3cc(O)ccc3O)c(=O)n(CC(=O)O)c2c1 | 25.4 |  | 
3950 | O=C(O)Cn1c(=O)c(-c2ccccc2)nc2ccc(O)cc21 | 19.1 |  | 
3410 | COc1ccc2nc(-c3cccc(O)c3)c(=O)n(CC(=O)O)c2c1 | 8.5 |  | 
983 | COc1ccc2c(c1)nc(CCc1ccc(O)c(OC)c1)c(=O)n2CC(=O)O | 31.9 |  | 
847 | COc1ccc2nc(CCc3ccc(O)c(OC)c3)c(=O)n(CC(=O)O)c2c1 | 28.3 |  | 
